pKd: −log10 of the molar value. No end group written: not given here.
Key:
Format in all cases: binding
KDD2 = target: T1, KDD2 (Entamoeba histolytica, UniProt C4M3C2, D242A/K147A); test: Microscale Thermophoresis (MST), kinase-dead EhAGCK2 (KDD2); details: KDD2 (K147A and D242A), Tris-Cl pH 8, 25°C, peptide 500 μM to 153 nM, n = 6
T1 sequence (C4M3C2 1-434 K147A/D242A): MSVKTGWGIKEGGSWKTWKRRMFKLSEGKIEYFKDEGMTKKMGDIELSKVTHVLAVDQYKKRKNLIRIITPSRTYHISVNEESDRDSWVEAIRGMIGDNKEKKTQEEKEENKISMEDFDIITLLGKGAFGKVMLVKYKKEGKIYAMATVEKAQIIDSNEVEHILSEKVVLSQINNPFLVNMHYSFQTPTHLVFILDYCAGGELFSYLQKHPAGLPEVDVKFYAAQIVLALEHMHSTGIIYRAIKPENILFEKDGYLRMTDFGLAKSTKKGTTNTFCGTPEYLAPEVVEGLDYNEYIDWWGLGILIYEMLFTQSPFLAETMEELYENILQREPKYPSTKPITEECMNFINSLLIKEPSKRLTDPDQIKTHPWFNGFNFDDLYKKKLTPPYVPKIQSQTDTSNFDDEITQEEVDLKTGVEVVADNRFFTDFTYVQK
Method: (§1) Microscale Thermophoresis (MST) was performed in the presence of full-length and kinase-dead EhAGCK1 and EhAGCK2 proteins, along with HsGSK3, EhRhoGEF, and EhCoactosin peptide substrates. Proteins were labelled using a His-tag labelling kit, RED-tris-NTA 2nd Generation (Nano Temper Technologies, San Francisco, CA, USA). A brief labelling reaction was performed in a buffer containing (50 mM Tris-Cl pH 8, 150 mM NaCl, 1 mM β-ME and 5% glycerol) with a protein concentration of 20 nM and a molar dye: protein ratio of approximately 3:1. The mixture was kept at room temperature for 30 min, followed by centrifugation at 15000 g for 10 min at 4°C. A series of 16 1:1 dilutions were prepared using the same buffer, resulting in peptide concentrations ranging from 500 μM to […]. Following a 10 min incubation, the samples were loaded into standard monolith NT.115 capillaries from Nano Temper Technologies. […] Data from three independently pipetted measurements were analysed using MO. […]
(§2) The kinase assay data presented here are the mean ± standard error (SE) of n≥3 of three independent experiments. The Km and Vmax were determined from a direct, nonlinear fit of [V] versus [S] plots using the Michaelis-Menten equation: V=Vmax[S]/Km+[S] using the GraphPad Prism 9.0 software package (GraphPad Software Inc., CA, USA). […]

EhAGCK1 WT = EhAGCK1 WT (Entamoeba histolytica, UniProt C4M2W0); test: Microscale Thermophoresis (MST), EhAGCK1 WT; details: MST, EhAGCK1
Method: as §1, §2

KDD1 = target: T2, KDD1 (Entamoeba histolytica, UniProt C4M2W0, D241A/K147A); test: Microscale Thermophoresis (MST), kinase-dead EhAGCK1 (KDD1); details: KDD1 (K147A and D241A), Tris-Cl pH 8, 25°C, peptide 500 μM to 153 nM, n = 6
T2 sequence (C4M2W0 1-433 K147A/D241A): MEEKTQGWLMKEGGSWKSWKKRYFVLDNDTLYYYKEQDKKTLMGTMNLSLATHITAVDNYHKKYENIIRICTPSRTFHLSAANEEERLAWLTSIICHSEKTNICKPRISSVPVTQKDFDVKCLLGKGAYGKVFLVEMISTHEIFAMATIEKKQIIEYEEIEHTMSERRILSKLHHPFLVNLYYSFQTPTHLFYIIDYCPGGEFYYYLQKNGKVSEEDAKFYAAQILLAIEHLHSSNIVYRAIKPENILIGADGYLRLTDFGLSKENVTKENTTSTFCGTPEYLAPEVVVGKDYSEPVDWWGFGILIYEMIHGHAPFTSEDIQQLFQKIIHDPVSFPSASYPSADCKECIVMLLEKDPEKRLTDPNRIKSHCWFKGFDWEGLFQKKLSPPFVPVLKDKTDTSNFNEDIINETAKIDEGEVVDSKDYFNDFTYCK
Method: as §1, §2

| Sequence | pKd (KDD2) | KD range in words (EhAGCK1 WT) | pKd (KDD1) |
| --- | --- | --- | --- |
| KAGGADYSFNTTSN [Coactosin] | 4.92 |  |  |
| SSPSSVPAAQSTTPVNVPK [RhoGEF] |  | within the nanomolar range | 4.92 |

— publication PMC11642994, “AGC family kinase of Entamoeba histolytica: Decoding the members biochemically” (PLOS Pathogens, 2024)
